These are literature values, as cited in patent US20260325482A1, “TASIMELTEON FOR USE IN THE TREATMENT OF DELAYED SLEEP-WAKE PHASE DISORDER” (VANDA PHARMACEUTICALS INC., priority 2023, published 2026).

For one series, the system named is MT2 receptor. As to conditions: MT2 receptor vs MT1 receptor.
The conditions of series [1]: high-calorie/high-fat meals.
For series [2] the following is noted: healthy volunteers, participants with primary insomnia, Non-24, and pediatric participants with SMS.
Another series deals with Non-24. The note with it: daily dose of 20 mg administered once, before bedtime.
Another series concerns SMS. As to conditions: daily dose of 0.7 mg/kg once daily; patients having a body mass of 28 kg or less.

For the molecule `CCC(=O)NC[C@@H]1C[C@H]1c1cccc2c1CCO2` [tasimelteon], the “affinity for the MT2 receptor compared with the MT1 receptor” value in the series on MT2 receptor is on record as “greater affinity for the MT2 receptor than the MT1 receptor”. Further, the linearity of pharmacokinetics entry (doses ranging from 3 mg to 300 mg) is “linear”. Where the note is “oral”, the absolute bioavailability was 38%. Moreover, in series [1], the Cmax with food entry is listed as “significantly lower”, the Tmax with food result is reported as “delay” and the “extent of absorption with food” value is “not significantly affected”. For the same molecule, the safety and tolerability entry in series [2] is “safe and well-tolerated”. The “effectiveness in treating Non-24” value in the series with Non-24 is listed as “effective”. Also, the “effectiveness in treating SMS” value in the series with SMS is recorded as “effective”.
